Results reported in patent publication US20250276959A1, “SOLID STATE FORMS OF ZAVEGEPANT HYDROCHLORIDE AND PROCESS FOR PREPARATION THEREOF” (TEVA CZECH INDUSTRIES S.R.O., priority 2022, published 2025).

Assay: Storage stability of the solid state form
Assay type: physicochemical
Procedure: Crystalline Form C2 of Zavegepant hydrochloride may have one or more advantageous properties, as discussed herein above. For example, Form C2 is stable for a period of at least for 6 months at temperature of about 25° C. and a relative humidity (“RH”) of 60% RH, and at a temperature of about 40° C. and 75% RH.

Cc1cc(C[C@@H](NC(=O)N2CCC(c3cc4ccccc4[nH]c3=O)CC2)C(=O)N2CCN(C3CCN(C)CC3)CC2)cc2cn[nH]c12 [Form C2, (R)N-(3-(7-methyl-1H-indazol-5-yl)-1-(4-(1-methylpiperidin-4-yl)piperazin-1-yl)-1-oxopropan-2-yl)-4-(2-oxo-1,2-dihydroquinolin-3-yl)piperidine-1-carboxamide]
period for which the form is stable (temperature of about 25° C., 60% RH): ≥ 6 months | period for which the form is stable (temperature of about 40° C., 75% RH): ≥ 6 months
